According to paper PMC5602100, “Retro analog concept: comparative study on physico-chemical and biological properties of selected antimicrobial peptides” (Amino Acids, 2017):
Read-outs that look alike come from different tables or passages of the source. Ends that are not written are not given here.

Tests used:
E. faecalis PCM 2673 = tested on: E. faecalis PCM 2673
Experimental: (§1) The minimal inhibitory concentrations (MICs) for bacteria and fungi were determined by the broth microdilution method according to the Clinical and Laboratory Standards Institute (CLSI) protocol (Clinical and Laboratory Standards Institute (CLSI) [2002], [2012]). For this purpose, the initial inoculums of bacteria (5 × 10^5 CFU/mL) in Mueller–Hinton Broth (Biocorp, Warsaw, Poland) were exposed to the ranging concentrations of compounds (0.125–256 µg/mL) and incubated for 18 h at 37 °C. In case of fungi, the initial inoculums of 2 × 10^3 CFU/mL in RPMI-1640 (Sigma-Aldrich, Steinheim, Germany) were exposed to the ranging concentrations of compounds (0.5–256 µg/mL) and incubated for 24 h at 37 °C. The experiments were conducted on 96-well microtiter plates, with the final volume of 100 µL. Cell densities were adjusted spectrophotometrically (Multiskan™ GO Microplate Spectrophotometer, Thermo Scientific) at the wavelengths of 600 nm for bacteria and 530 nm for fungi. The MIC was taken as the lowest drug concentration at which a noticeable growth of microorganisms was inhibited. Reference strains of bacteria: Escherichia coli ATCC 25922, E. coli ATCC 23506, Enterococcus faecalis PCM 2673, Klebsiella pneumoniae ATCC 700603, Pseudomonas aeruginosa ATCC 9027, Staphylococcus aureus ATCC 25923, S. aureus 9144, Streptococcus pneumoniae ATCC 49619, and fungi: Aspergillus niger ATCC 16404, Candida albicans ATCC 10231, and C. glabrata ATCC 15126 were obtained from Polish Collection of Microorganisms (PCM, Polish Academy of Sciences, Wroclaw, Poland) and from American Type Culture Collection (ATCC). All experiments were conducted in triplicate.

E. coli ATCC 25922 = tested on: E. coli ATCC 25922
Experimental: as §1

E. coli ATCC 23506 = tested on: E. coli ATCC 23506
Experimental: as §1

C. glabrata ATCC 15126 = tested on: C. glabrata ATCC 15126
Experimental: as §1

A. niger ATCC 16404 = tested on: A. niger ATCC 16404
Experimental: as §1

S. aureus ATCC 25923 = tested on: S. aureus ATCC 25923
Experimental: as §1

S. aureus ATCC 9144 = tested on: S. aureus ATCC 9144
Experimental: as §1

[1] = tested on: K. pneumoniae ATCC 700603
Experimental: as §1

C. albicans ATCC 10231 = tested on: C. albicans ATCC 10231
Experimental: as §1

S. pneumoniae ATCC 49619 = tested on: S. pneumoniae ATCC 49619
Experimental: as §1

P. aeruginosa ATCC 9027 = tested on: P. aeruginosa ATCC 9027
Experimental: as §1

[2] = tested on: human red blood cells (RBCs); test: Hemolysis assay; format: cell-based; settings: fresh human RBCs 4% (v/v) in PBS, 60 min at 37 °C, absorbance 540 nm, 100% control 1% Triton-X 100, triplicate
Experimental: The hemolysis assay was conducted according to the procedure described previously in the literature (Avrahami and Shai [2004]). Fresh human red blood cells (RBCs) with EDTA as anticoagulant were rinsed three times with a phosphate-buffer saline (PBS) by centrifugation at 800×g for 10 min and resuspended in PBS. Serial dilution of peptides (1–512 µg/mL) was conducted in PBS on 96-well plates. Then the stock solution of RBCs was added to reach a final volume of 100 µL with a 4% concentration of erythrocytes (v/v). The control wells for 0 and 100% hemolysis consisted of RBCs suspended in PBS and 1% of Triton-X 100, respectively. Subsequently, the plates were incubated for 60 min at 37 °C and then centrifuged at 800×g for 10 min at 4 °C (Sorvall ST 16R Centrifuge, Thermo Scientific). After centrifugation the supernatant was carefully […] to new microtiter plates and the release of hemoglobin was monitored by measurement of absorbance at 540 nm (Multiskan™ GO Microplate Spectrophotometer, Thermo Scientific). All experiments were conducted in triplicate.

[3] = broth microdilution (CLSI), 2 × 10^3 CFU/mL in RPMI-1640, 0.5–256 µg/mL, 24 h at 37 °C, triplicate
[4] = broth microdilution (CLSI), 5 × 10^5 CFU/mL in Mueller–Hinton Broth, 0.125–256 µg/mL, 18 h at 37 °C, triplicate

Substance | MIC, E. faecalis PCM 2673 (E. faecalis PCM 2673; PCM 2673, 18 h) [µg/mL] | MIC, E. coli ATCC 25922 (E. coli ATCC 25922; ATCC 25922, 18 h) [µg/mL] | MIC, E. coli ATCC 23506 (E. coli ATCC 23506; ATCC 23506, 18 h) [µg/mL] | MIC, C. glabrata ATCC 15126 (C. glabrata ATCC 15126; ATCC 15126, 24 h) [µg/mL] | MIC, A. niger ATCC 16404 (A. niger ATCC 16404; ATCC 16404, 24 h) [µg/mL] | MIC, S. aureus ATCC 25923 (S. aureus ATCC 25923; ATCC 25923, 18 h) [µg/mL] | MIC, S. aureus ATCC 9144 (S. aureus ATCC 9144; ATCC 9144, 18 h) [µg/mL] | MIC, K. pneumoniae ATCC 700603 ([1]; ATCC 700603, 18 h) [µg/mL] | MIC, C. albicans ATCC 10231 (C. albicans ATCC 10231; ATCC 10231, 24 h) [µg/mL] | MIC, S. pneumoniae ATCC 49619 (S. pneumoniae ATCC 49619; ATCC 49619, 18 h) [µg/mL] | MIC, P. aeruginosa ATCC 9027 (P. aeruginosa ATCC 9027; ATCC 9027, 18 h) [µg/mL] | MIC, C. glabrata ATCC 15126 (C. glabrata ATCC 15126; [3]) [µg/mL] | MIC, A. niger ATCC 16404 (A. niger ATCC 16404; [3]) [µg/mL] | MIC, K. pneumoniae ATCC 700603 [1, 4] [µg/mL] | MIC, C. albicans ATCC 10231 (C. albicans ATCC 10231; [3]) [µg/mL] | further results
GIGKFLKKAKKFGKAFVKILKK-NH2 [pexiganan] | 16 | 4 | 2 | 256 | 16 | 8 | 8 | 1 | 256 | 1 | 2 |  |  |  |  | 
KKLIKVFAKGFKKAKKLFKGIG-NH2 [r-pexiganan] | 64 | 8 | 2 | 128 | 32 | 128 | 64 | 0.25 | 256 | 4 | 2 |  |  |  |  | 
GLFDIIKKIAESF-NH2 [aurein 1.2] | 64 | 128 | 128 |  |  | 128 | 128 |  |  | 64 | 256 | 128 | 64 | 16 | 128 | rate of hemolysis at MIC concentrations [2]: lower than 10%
LIGSLVRGILPLF-NH2 [r-temporin A] | 256 | 256 | 256 | >256 | 256 | 64 | 64 | 128 | 256 | >256 | 256 |  |  |  |  | 
KWKLFKKIGAVLKVL-NH2 [CAMEL] |  |  |  |  |  |  |  |  |  |  |  | 64 | 16 | 0.125 | 32 | MIC, E. faecalis PCM 2673 (E. faecalis PCM 2673; [4]): 8 µg/mL; MIC, E. coli ATCC 25922 (E. coli ATCC 25922; [4]): 2 µg/mL; MIC, E. coli ATCC 23506 (E. coli ATCC 23506; [4]): 1 µg/mL; MIC, S. aureus ATCC 25923 (S. aureus ATCC 25923; [4]): 4 µg/mL; MIC, S. aureus ATCC 9144 (S. aureus ATCC 9144; [4]): 4 µg/mL; MIC, S. pneumoniae ATCC 49619 (S. pneumoniae ATCC 49619; [4]): 0.5 µg/mL; MIC, P. aeruginosa ATCC 9027 (P. aeruginosa ATCC 9027; [4]): 2 µg/mL
